Measured values reported in publication PMC3651043 (Biochemistry, 2013).

Key:
[1] = biological target: pKSI (ketosteroid isomerase from Pseudomonas putida) (Pseudomonas putida, UniProt P07445, D40A); experiment: intrinsic fluorescence quenching; type: binding
[2] = biological target: tKSI (ketosteroid isomerase from Comamonas testosteroni) (Comamonas testosteroni, UniProt P00947); experiment: intrinsic fluorescence quenching; type: binding
[3] = biological target: pKSI (ketosteroid isomerase from Pseudomonas putida) (Pseudomonas putida, UniProt P07445); experiment: intrinsic fluorescence quenching; type: binding
Sequence of pKSI (ketosteroid isomerase from Pseudomonas putida) (Pseudomonas putida, UniProt P07445) (P07445 whole entry): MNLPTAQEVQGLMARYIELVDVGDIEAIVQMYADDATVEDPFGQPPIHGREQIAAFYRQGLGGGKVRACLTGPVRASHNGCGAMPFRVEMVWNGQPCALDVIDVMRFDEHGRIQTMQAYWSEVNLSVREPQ

[4] = biological target: tKSI (ketosteroid isomerase from Comamonas testosteroni) (Comamonas testosteroni, UniProt P00947, D38A); experiment: intrinsic fluorescence quenching; type: binding
Sequence of tKSI (ketosteroid isomerase from Comamonas testosteroni) (Comamonas testosteroni, UniProt P00947, D38A) (P00947 whole entry D38A): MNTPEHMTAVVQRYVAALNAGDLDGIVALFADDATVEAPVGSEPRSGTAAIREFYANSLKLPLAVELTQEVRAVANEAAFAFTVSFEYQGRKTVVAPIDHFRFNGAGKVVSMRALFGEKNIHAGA

[5] = biological target: pKSI (ketosteroid isomerase from Pseudomonas putida) (Pseudomonas putida, UniProt P07445, D40N); experiment: biochemical
Sequence of pKSI (ketosteroid isomerase from Pseudomonas putida) (Pseudomonas putida, UniProt P07445, D40N) (P07445 whole entry D40N): as the sequence (P07445 whole entry) above, with D40N counted along it

[6] = biological target: tKSI (ketosteroid isomerase from Comamonas testosteroni) (Comamonas testosteroni, UniProt P00947, D38N); experiment: biochemical
Sequence of tKSI (ketosteroid isomerase from Comamonas testosteroni) (Comamonas testosteroni, UniProt P00947, D38N) (P00947 whole entry D38N): as the sequence (P00947 whole entry D38A) above, with A38N counted along it

Sequence of pKSI (ketosteroid isomerase from Pseudomonas putida) (Pseudomonas putida, UniProt P07445, D40A) (P07445 whole entry D40A): as the sequence (P07445 whole entry) above, with D40A counted along it
Sequence of tKSI (ketosteroid isomerase from Comamonas testosteroni) (Comamonas testosteroni, UniProt P00947) (P00947 whole entry): as the sequence (P00947 whole entry D38A) above, with A38D counted along it

**Q.** For `C[C@]12CCC(=O)C=C1CC[C@@H]1[C@@H]2CC[C@]2(C)C(=O)CC[C@@H]12` [4-androstene-3,17-dione], which Kd [1] is on record?
**A.** 0.385 µM

**Q.** What about the Kd [2] of the same compound?
**A.** 62.5 µM

**Q.** And the Kd [3]?
**A.** 62.5 µM

**Q.** What about the Kd [4] of the same compound?
**A.** 0.909 µM

**Q.** What about the Kd [5] of the same compound?
**A.** 1.33 µM

**Q.** What about the Kd [6] of the same compound?
**A.** 15.9 µM
